{
  "source": "patent US20070043024A1",
  "about": "“Azacyclic compounds as inhibitors of sensory neurone specific channels” (priority 2003, published 2007)",
  "data": [
    {"biological_target": "T1, human Nav1.8 (hNav1.8) ion channel (Homo sapiens, UniProt Q9Y5Y9)", "T1 construct": "expressed in transfected cells", "T1 sequence (Q9Y5Y9 whole entry)": "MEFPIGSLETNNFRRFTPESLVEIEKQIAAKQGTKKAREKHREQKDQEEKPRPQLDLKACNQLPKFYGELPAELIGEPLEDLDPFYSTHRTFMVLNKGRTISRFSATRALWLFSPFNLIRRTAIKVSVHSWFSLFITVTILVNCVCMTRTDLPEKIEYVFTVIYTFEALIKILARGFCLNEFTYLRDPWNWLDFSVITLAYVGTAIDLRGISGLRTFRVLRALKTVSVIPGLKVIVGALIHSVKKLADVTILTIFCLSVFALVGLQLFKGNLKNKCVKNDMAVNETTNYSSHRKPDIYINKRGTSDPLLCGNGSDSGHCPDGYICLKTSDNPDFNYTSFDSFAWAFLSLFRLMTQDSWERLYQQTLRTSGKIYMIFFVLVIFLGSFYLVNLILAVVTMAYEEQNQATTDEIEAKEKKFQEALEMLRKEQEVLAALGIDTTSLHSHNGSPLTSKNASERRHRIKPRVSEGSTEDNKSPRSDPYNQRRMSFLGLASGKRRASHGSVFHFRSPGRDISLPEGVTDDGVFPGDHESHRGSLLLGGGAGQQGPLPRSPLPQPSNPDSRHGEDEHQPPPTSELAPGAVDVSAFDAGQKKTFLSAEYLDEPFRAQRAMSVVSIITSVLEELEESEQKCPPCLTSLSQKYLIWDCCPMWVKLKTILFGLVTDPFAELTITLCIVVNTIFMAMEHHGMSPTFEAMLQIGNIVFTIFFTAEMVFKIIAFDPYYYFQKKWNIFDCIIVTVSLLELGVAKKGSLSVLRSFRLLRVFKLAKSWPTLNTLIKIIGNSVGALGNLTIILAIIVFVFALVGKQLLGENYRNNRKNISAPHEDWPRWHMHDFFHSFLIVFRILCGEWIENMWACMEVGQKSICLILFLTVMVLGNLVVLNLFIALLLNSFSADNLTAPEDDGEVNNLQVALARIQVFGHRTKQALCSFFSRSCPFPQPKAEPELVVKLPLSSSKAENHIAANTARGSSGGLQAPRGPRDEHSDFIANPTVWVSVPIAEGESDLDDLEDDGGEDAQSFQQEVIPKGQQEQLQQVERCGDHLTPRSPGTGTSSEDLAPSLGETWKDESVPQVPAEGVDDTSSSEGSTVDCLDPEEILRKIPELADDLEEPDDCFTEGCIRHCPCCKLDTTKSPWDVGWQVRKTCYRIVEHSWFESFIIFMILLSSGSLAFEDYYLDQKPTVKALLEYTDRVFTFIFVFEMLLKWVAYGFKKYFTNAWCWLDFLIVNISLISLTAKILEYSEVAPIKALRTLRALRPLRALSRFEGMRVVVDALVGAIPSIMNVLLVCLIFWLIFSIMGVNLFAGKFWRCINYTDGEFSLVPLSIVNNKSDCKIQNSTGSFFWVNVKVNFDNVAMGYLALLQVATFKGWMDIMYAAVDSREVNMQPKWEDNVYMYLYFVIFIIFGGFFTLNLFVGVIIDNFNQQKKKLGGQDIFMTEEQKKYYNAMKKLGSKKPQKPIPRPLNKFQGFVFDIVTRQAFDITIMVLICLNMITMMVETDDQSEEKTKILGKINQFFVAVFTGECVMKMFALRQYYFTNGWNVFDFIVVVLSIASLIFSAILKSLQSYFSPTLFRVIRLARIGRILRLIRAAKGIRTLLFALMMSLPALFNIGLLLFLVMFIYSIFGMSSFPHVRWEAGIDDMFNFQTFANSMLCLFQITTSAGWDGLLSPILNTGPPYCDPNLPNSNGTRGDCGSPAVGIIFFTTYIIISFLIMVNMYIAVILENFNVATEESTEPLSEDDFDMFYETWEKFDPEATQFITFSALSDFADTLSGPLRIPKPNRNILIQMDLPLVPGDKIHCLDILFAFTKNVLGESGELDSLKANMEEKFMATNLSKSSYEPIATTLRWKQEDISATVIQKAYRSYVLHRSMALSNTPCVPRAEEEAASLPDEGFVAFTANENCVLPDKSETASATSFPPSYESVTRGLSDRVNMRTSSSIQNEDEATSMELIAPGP", "test": "Inhibition of human Nav1.8 stably expressed in SH-SY-5Y cells (membrane potential dye fluorescence assay)", "type": "cell-based", "settings": "Table 1; SH-SY-5Y hNav1.8 cells, inhibition of membrane depolarisation, FLIPR membrane potential dye, 250 nM TTX, test concentration range 100 μM-0.05 μM; read-out: IC50", "units": {"IC50": "nM"}, "values": [
      {"smiles": "O=C(CN(CCC(c1ccccc1)c1ccccc1)CC(=O)N1CCc2ccccc2C1)N1CCc2ccccc2C1", "note": "[Example 33, 1-(3,4-Dihydro-1H-isoquinolin-2-yl)-2-[[2-(3,4-dihydro-1H-isoquinolin-2-yl)-2-oxo-ethyl]-(3,3-diphenyl-propyl)-amino]-ethanone]", "IC50": 860},
      {"smiles": "COc1ccc2c(c1)CN(CCNCCC(c1ccccc1)c1ccccc1)CC2", "note": "[Example 89, (3,3-Diphenyl-propyl)-[2-(7-methoxy-3,4-dihydro-1H-isoquinolin-2-yl)-ethyl]amine]", "IC50": 490},
      {"smiles": "O=C(CNCC(c1ccccc1)c1ccccc1)N1CCc2ccccc2C1", "note": "[Example 32, 1-(3,4-Dihydro-1-isoquinolin-2-yl)-2-(2,2-diphenyl-ethylamino)-ethanone]", "IC50": 230},
      {"smiles": "O=C(CN1Cc2ccccc2C1)NC(c1ccccc1)c1ccccc1", "note": "[Example 41, N-Benzhydryl-2-(1,3-dihydro-isoindol-2-yl)-acetamide]", "IC50": 7020},
      {"smiles": "O=C(CN1Cc2ccccc2C1)N1CCN(C(c2ccc(F)cc2)c2ccc(F)cc2)CC1", "note": "[Example 68, 1-{4-[Bis-(4-fluoro-phenyl)-methyl]-piperazin-1-yl}-2-(1,3-dihydro-isoindol-2-yl)-ethanone]", "IC50": 1950},
      {"smiles": "O=C(CN1CCc2cccc(O)c2C1)N1c2ccccc2OCC1c1ccccc1", "note": "(stereo not shown) [Example 70, 2-(8-Hydroxy-3,4-dihydro-1H-isoquinolin-2-yl)-1-(3-phenyl-2,3-dihydro-benzo[1,4]oxazin-4-yl)-ethanone]", "IC50": 2140}
    ]},
    {"biological_target": "T1, human Nav1.8 (hNav1.8) ion channel", "test": "Inhibition of human Nav1.8 stably expressed in SH-SY-5Y cells (membrane potential dye fluorescence assay)", "type": "cell-based", "settings": "Table 2 (compound numbers of the list in the description); SH-SY-5Y hNav1.8 cells, inhibition of membrane depolarisation, FLIPR membrane potential dye, 250 nM TTX, test concentration range 100 μM-0.05 μM; read-out: IC50", "units": {"IC50": "nM"}, "values": [
      {"smiles": "COc1cccc2c1CN(C(C)C(=O)N1c3ccccc3Oc3ccccc31)C2", "note": "(stereo not shown) [Compound 217, 2-(4-Methoxy-1,3-dihydro-isoindol-2-yl)-1-phenoxazin-10-yl-propan-1-one]", "IC50": 1960},
      {"smiles": "COc1cccc2c1CN(CCC(=O)NCCC(c1ccc(F)cc1)c1ccc(F)cc1)CC2", "note": "[Compound 166, N-[3,3-Bis-(4-fluoro-phenyl)-propyl]-3-(8-methoxy-3,4-dihydro-1H-isoquinolin-2-yl)-propionamide]", "IC50": 350},
      {"smiles": "COc1cccc2c1CN(CC(=O)N1c3ccccc3[S+]([O-])c3ccccc31)CC2", "note": "[Compound 143, 2-(8-Methoxy-3,4-dihydro-1H-isoquinolin-2-yl)-1-(5-oxo-5H-5lambda*4*-phenothiazin-10-yl)-ethanone]", "IC50": 9590},
      {"smiles": "COc1ccc2c(c1)CCCN(CC(=O)N(Cc1ccccc1)Cc1ccccc1)C2", "note": "[Compound 86, N,N-dibenzyl-2-(7-methoxy-1,3,4,5-tetrahydro-benzo[c]azepin-2-yl)-acetamide]", "IC50": 490},
      {"smiles": "COc1cc2c(cc1OC)CN(CCNC(=S)NCC(c1ccccc1)c1ccccc1)CC2", "note": "[Compound 138, 1-[2-(6,7-Dimethoxy-3,4-dihydro-1H-isoquinolin-2-yl)-ethyl]-3-(2,2-diphenyl-ethyl)-thiourea]", "IC50": 520},
      {"smiles": "COc1cc2c(cc1OC)CN(CCNC(=O)N1c3ccccc3Oc3ccccc31)CC2", "note": "[Compound 165, Phenoxazine-10-carboxylic acid [2-(6,7-dimethoxy-3,4-dihydro-1H-isoquinolin-2-yl)-ethyl]-amide]", "IC50": 1020},
      {"smiles": "COc1ccc2c(c1)CCCN(CC(=O)NCCC(c1ccccc1)c1ccccc1)C2", "note": "[Compound 85, N-(3,3-diphenyl-propyl)-2-(7-methoxy-1,3,4,5-tetrahydro-benzo[c]azepin-2-yl)-acetamide]", "IC50": 1080},
      {"smiles": "O=C(CN1Cc2ccccc2C1)NC(c1ccc(F)cc1)c1ccc(F)cc1", "note": "[Compound 118, N-[Bis-(4-fluoro-phenyl)-methyl]-2-(1,3-dihydro-isoindol-2-yl)-acetamide]", "IC50": 10200},
      {"smiles": "COc1cccc2c1CN(CC(=O)N1c3ccccc3CCc3ccccc31)CC2", "note": "[Compound 73, 1-(10,11-dihydro-dibenzo[b,f]azepin-5-yl)-2-(8-methoxy-3,4-dihydro-1H-isoquinolin-2-yl)-ethanone]", "IC50": 1280},
      {"smiles": "O=C(CNC(c1ccccc1)c1ccccc1)N1Cc2ccccc2C1", "note": "[Compound 107, 2-(Benzhydryl-amino)-1-(1,3-dihydro-isoindol-2-yl)-ethanone]", "IC50": 2260}
    ]}
  ]
}
